{"source": "patent US20110224300A1", "about": "“USE OF POTASSIUM 2-(a- HYDROXYPENTYL) BENZOATE IN THE MANUFACTURE OF MEDICAMENTS FOR PREVENTING AND/OR TREATING SENILE [sequence]” (Institute of Mataria Medica, Chinese Academy of Me, priority 2008, published 2011)", "key": {"[1]": {"system": "cortex and hippocampus neurons of 2-VO rats", "assay": "HE staining, neuronal morphology in 2-VO rats", "assay_type": "in vivo, rat", "details": "21 days", "procedure": "Four rats in each group were anesthetized with sodium pentobarbital (100 mg/kg, intraperitoneal injection), and perfused transcardially with cold saline, followed by 300 ml of 4% paraformaldehyde in 0.01 M phosphate buffer (pH 7.4). After these procedures, the brains were removed and stored in the 0.01 M phosphate buffer (pH 7.4) with 4% paraformaldehyde and 30% sucrose at 4° C. until fully equilibrated. Then they were postfixed at 4° C., dehydrated and embedded in paraffin blocks. Coronal sections of 8 μm were stained with hematoxylin-eosin and Klüver-Barrera.\nHE staining in the cytoplasm and nucleus in different colors, you can clearly see the general shape of the cells. […] Above that, dl-PHPB could protect and care the damage of cortex and hippocampus neurons caused by chronic cerebral hypoperfusion."}, "MDA": {"system": "MDA", "assay": "MDA level of brain tissues from SAMP8 mice", "assay_type": "in vivo", "details": "35 days; for MDA level in the hippocampus / decrease of hippocampus MDA level compared with SAMP8: without statistical significance", "procedure": "(§1) The biochemical assays were conducted later (in 24 h) after behavioral testing. Eight rats in each group were anesthetized with ether and sacrificed. The brains were quickly removed and cleaned with ice-cold saline. Then the parietal cortex and hippocampus were isolated. For biochemical analysis, the tissues were weighed and homogenized in ice-cold saline with the proportion of 1:9 (w/v). Homogenization (IKA, Germany) was carried out for 2 min in an ice bath. After the homogenates were centrifuged at 2,000×g for 10 min at 4° C. (Sigma, Germany), the supernatant was used for analytical procedures. The levels of choline acetyltransferase (ChAT) SOD, and MDA activities were determined with commercial colorimetric assay kits (Nanjing Jiancheng Bioengineering Institute, China). The content of protein in the supernatant was determined by Bradford method using BSA as standard.\n(§2) SAMP8 were divided into three experimental groups randomly: one vehicle control group, and two dl-PHPB-treated groups (50, and 160 mg/kg). Drugs and vehicle were administered orally to SAMP8 mice for 35 days (one time/each day). The spatial learning and memory abilities of SAMP8 mice were detected by Morris water maze and DTT-2 jumping apparatus in 31-35 days. The testing was commenced at 40 min after drugs treated. The biochemical and pathology assays conducted later (in 24 h) after behavioral testing.\nThe methods as described previously."}, "[2]": {"system": "Aβ(25-35)-induced dementia rats", "assay": "Morris water maze in Aβ(25-35)-induced dementia rats", "assay_type": "in vivo, Male Wistar rats", "details": "Aβ(25-35) rats; for percentage of time in the target quadrant (probe test): vehicle 21.6±1.6%", "procedure": "Subjects were tested in a Morris water maze. This test is based on a standardized assessment of spatial learning ability. The water maze apparatus consisted of a circular, stainless pool (120 cm in diameter, 60 cm in height). It was placed in a dimly lit, sound-proof test room. Multiple distant cues around the room (window, cabinets, furniture) were kept in the same location throughout the experiments. The water was filled to a depth of 40 cm at 25±1° C. and was made opaque by adding milk powder to prevent visualization of the platform. A transparent platform (10 cm diameter) was put 1.5 cm below the surface of the water. The tank was divided into four quadrants with the platform in a fixed position in one quadrant. The subjects were placed into the maze facing the pool wall and were allowed two trials per day, 60 s per trial, to find the hidden platform. If the subject found the platform within the 60 s, it was given a 10-s rest period on the platform between trials. If the pedestal was not located within the time allotted, the subject was placed on to the platform and allowed 10 s until the next trial. The escape latency (time to reach the platform) was used to assess acquisition of the water maze task. Sessions were repeated for five consecutive days. On the sixth day, the platform was removed and the rat was allowed to search for the platform for 60 s (probe test). The time in the platform quadrant and latency time to cross platform location were recorded to measure the spatial learning ability without the influence of chance encounters with the platform. The Morris water maze sessions were recorded with a video camera for offline analysis.\nAβ(25-35)-induced dementia model in 10 months of Male Wistar rats with 600 g B.W. was created by slow injection of 15 nmol (volume of 50) aggregation of Aβ (25-35). Sham-operation group was only injected with PBS (volume of 50). After operation, the animals were injected penicillin 200 000 units for 4 days by intraperitoneal injection.\nRats were divided into four experimental groups randomly (10 rats/each group): one sham-operated group, one vehicle control group, and two dl-PHPB-treated groups (39, and 129 mg/kg). At 1 days after operation, drugs and vehicle were administered orally to rats for 14 days (one time/each day). The spatial learning and memory abilities of rats were detected by Morris water maze in the 9-12 days after operation. The testing of Morris water was commenced at 40 min after drugs treated. The biochemical and pathology assays conducted later (in 24 h) after behavioral testing.\nThe navigation test was performed in 9-12 days after icy Aβ (25-35) by the same method as the before. On the thirteenth day, the platform was removed and the rat was allowed to search for the platform for 30 s (probe test). The time in the platform quadrant and latency time to cross platform location were recorded to measure the spatial learning ability without the influence of chance encounters with the platform."}, "SAMP8 mice": {"system": "SAMP8 mice", "assay": "Water maze test (blind sides) in SAMP8 mice", "assay_type": "in vivo", "procedure": "as §2\nThe water maze consisted of square black opaque plastic box (80 cm×50 cm×20 cm), of which four blind-side and a terminal stage. When a black plastic sheet (15 cm×20 cm) was placed in different locations, there were different the starting points and different number of blind side. The water maze filled with water at 25±1° C. to a depth 12 cm. Mice can be placed in different starting point, making experience with different number of blind side to the end. The number of errors into the blind side and the time to reach the end platform (escape latency) was recorded.\nEach mouse was permitted to stay there for 5 s and place in the pool, allowed 3 min to find the end platform. The escape latency (time to reach the platform) was used to assess acquisition of the water maze task. Sessions was repeated for 4 consecutive days."}, "ChAT": {"system": "ChAT", "assay": "ChAT activity of brain tissues from SAMP8 mice", "assay_type": "in vivo", "procedure": "as §1\nas §2, with “testing. […]” for “testing.”"}}}
{"smiles": "CCCCC(O)c1ccccc1C(=O)[O-].[K+]", "note": "(racemic) [dl-PHPB, Potassium 2-(1-Hydroxypentyl)-benzoate]", "values": [{"measurement": "neuronal morphology, HE staining", "setting": "[1]; dl-PHPB 13 mg/kg", "result": "only minor improve the abnormal shape of cortical neurons"}, {"measurement": "neuronal morphology, HE staining", "setting": "[1]; dl-PHPB 39 mg/kg", "result": "significantly improve the cortex, hippocampus area CA1 and CA3 neurons form"}, {"measurement": "neuronal morphology, HE staining", "setting": "[1]; dl-PHPB 129 mg/kg", "result": "improve the cortex and hippocampus CA1 area neuronal morphologic abnormalities"}, {"measurement": "MDA level in the hippocampus", "setting": "MDA; 50 mg/kg oral", "result": "1.23±0.05", "unit": "nmol/mg protein"}, {"measurement": "decrease of hippocampus MDA level compared with SAMP8", "setting": "MDA; 50 mg/kg oral", "result": 35.3, "unit": "%"}, {"measurement": "MDA level in the hippocampus", "setting": "MDA; 160 mg/kg oral", "result": "1.26±0.09", "unit": "nmol/mg protein"}, {"measurement": "decrease of hippocampus MDA level compared with SAMP8", "setting": "MDA; 160 mg/kg oral", "result": 33.7, "unit": "%"}, {"measurement": "MDA level in the cortex", "setting": "MDA; cortex, data not shown", "result": "did not significantly improved in MDA level"}, {"measurement": "escape latency", "setting": "[2]; 39 mg/kg orally, 2nd day of training, P<0.05", "result": "shorter than sham group"}, {"measurement": "escape latency", "setting": "[2]; 39 mg/kg orally, 3rd to 4th days", "result": "shorter than vehicle group"}, {"measurement": "percentage of time in the target quadrant (probe test)", "setting": "[2]; 39 mg/kg orally, trend only", "result": "24.6±3.0", "unit": "%"}, {"measurement": "escape latency", "setting": "[2]; 129 mg/kg orally, 3rd to 4th days, P<0.05 or P<0.01", "result": "significantly shorter than vehicle group"}, {"measurement": "percentage of time in the target quadrant (probe test)", "setting": "[2]; 129 mg/kg orally, sham 32.8±4.0%, p<0.05 vs vehicle", "result": "30.2±2.5", "unit": "%"}, {"measurement": "time of the first cross platform (probe test)", "setting": "[2]; dose not specified", "result": "shorten trend"}, {"measurement": "number of errors into the blind-side", "setting": "SAMP8 mice; 50 mg/kg oral, fifth test, vehicle 6.1±1.1, P<0.05", "result": "3.1±0.9"}, {"measurement": "escape latency time", "setting": "SAMP8 mice; 50 mg/kg, last test, P<0.01 vs vehicle", "result": "significantly shorten the escape latency time"}, {"measurement": "number of errors into the blind-side", "setting": "SAMP8 mice; 160 mg/kg oral, fifth test, vehicle 6.1±1.1, P<0.05", "result": "2.7±0.3"}, {"measurement": "escape latency time", "setting": "SAMP8 mice; 160 mg/kg, fourth training, P<0.05", "result": "significantly shortened the escape latency time"}, {"measurement": "escape latency time", "setting": "SAMP8 mice; 160 mg/kg, last test, P<0.01 vs vehicle", "result": "significantly shorten the escape latency time"}, {"measurement": "escape latency time", "setting": "SAMP8 mice; first and second trainings, each group", "result": "no significant difference"}, {"measurement": "number of errors into the blind-side", "setting": "SAMP8 mice; first three trainings, vs vehicle", "result": "no significant difference"}, {"measurement": "number of errors into the blind-side", "setting": "SAMP8 mice; fourth training, vs vehicle, dose not specified", "result": "significantly decreased the number of errors"}, {"measurement": "escape latency time", "setting": "SAMP8 mice; third training", "result": "tendency of the shorter escape latency"}, {"measurement": "ChAT activity in the hippocampus", "setting": "ChAT; 35 days, dose-dependent, P<0.05", "result": "significantly increased ChAT activity"}, {"measurement": "ChAT activity in the cortex", "setting": "ChAT; cortex, data not shown", "result": "did not significantly improve ChAT activity"}]}
